In patent publication US20220251096A1, “7,8-DIHYDRO-4H-PYRAZOLO[4,3-c]AZEPINE-6-ONE COMPOUNDS” (Eli Lilly and Company, priority 2019, published 2022):

Experiments:
[1] = system: HL-60; test: Cell growth inhibition assay, HL-60; assay type: cell-based; conditions: Homo sapiens, 168 h; HL-60, 7 days
Experimental: (§1) Tumor cell lines are plated onto 96-well, black wall poly-D-lysine plates (Corning #354640), and incubated at 37° C., 5% CO2 for 18-24 hours. Compound was added at 1:3 dilutions in DMSO and cells were incubated at 37° C., 5% CO2 for 7 days. For adherent cell lines, cells were fixed and stained with propidium iodide and scanned on Acumen (channel 3 setting). For suspension cell lines, cell growth was monitored using Cell Titer-Glo reagent.

[2] = system: NCI-H1048; test: Cell growth inhibition assay, NCI-H1048; assay type: cell-based; conditions: Homo sapiens, 168 h; NCI-H1048, 7 days
Experimental: as §1

[3] = molecular target: CREBBP (Homo sapiens, UniProt Q92793); test: NanoBRET assay, CREBBP bromodomain; assay type: cell-based; design: NanoLuc-CREBBP-BD (Promega, 0.0002 μg); host or cells: HEK293; conditions: NanoBRET in HEK293 cells, read after 4 hours incubation; mean ± Standard Deviation
CREBBP, sequence (Q92793 1085-1192 limits assumed): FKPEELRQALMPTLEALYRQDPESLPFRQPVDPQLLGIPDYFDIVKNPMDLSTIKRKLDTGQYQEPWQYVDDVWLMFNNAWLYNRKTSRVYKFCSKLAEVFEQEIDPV
Experimental: HEK293 cells are seeded at 10×10^6 cells/16 mL in DMEM+10% FBS in a T-75 flask and left to attach for 4-6 hours. Transfection reagents are diluted in Opti-MEM media (no phenol red, no FBS) and 8% Fugene HD containing expression plasmids at a final concentration of the following: 1: Histone H3.3 HaloTag DNA (Promega, 0.02 μg)+NanoLuc-CREBBP-BD (Promega, 0.0002 μg); 2: Histone H3.3 HaloTag DNA (Promega, 0.02 μg)+NanoLuc-EP300-BD (Promega, 0.0002 μg); 3: Histone H4 HaloTag DNA (0.02 μg)+NanLuc-BRD4 Full Length (Promega, 0.0002 μg). The DNA/Fugene mixtures are left at RT for 10 minutes. Transfection mix (800 μL) is added per flask and immediately swirled to cover the cells. The plates are returned to the incubator for overnight transfection. The next day, HaloTag NanoBRET 618 ligand (20 μL/vial of 0.1 mM) is thawed at RT. […]
Compound is serially diluted and added to 96-well plates (2 10 mM, 3-fold dilutions, 100% DMSO). […] CREBBP/EP300 plates are read after 4 hours incubation and the BRD4 plates are read after overnight incubation. To develop plates for reading, allow all reagents to reach RT before use. […] The plate is shaken for 1 minute to mix and within 10 minutes, read on Envision plate reader with the following settings: Mirror: Luminescence; Emission filter: E600LP; 2nd emission filter: D460/50; Measurement height (mm): 6.5; Measurement time (s): 0.2 second.

[4] = system: OCI-AML3; test: Cell growth inhibition assay, OCI-AML3; assay type: cell-based; conditions: Homo sapiens, OCI-AML-3, 168 h; OCI-AML3, 7 days
Experimental: as §1

[5] = system: NCI-H211; test: Cell growth inhibition assay, NCI-H211; assay type: cell-based; conditions: Homo sapiens, 168 h; NCI-H211, 7 days
Experimental: as §1

[6] = system: MOLM-16; test: Cell growth inhibition assay, MOLM-16; assay type: cell-based; conditions: MOLM16, 168 h; MOLM-16, 7 days
Experimental: as §1

[7] = molecular target: T1, BRD4 (BD2) (Homo sapiens, UniProt O60885); test: BromoKdELECT platform assay, BRD4 (BD2); assay type: binding; conditions: 11 points dose-response, mean from a duplicate experiment
T1 construct: BRD4 (Bromodomain 1 (BD1) and Bromodomain 2 (BD2)); purchased DiscoverX (BromoKdELECT service)
Description: The purpose of this assay is to evaluate the in vitro target engagement and selectivity (https://www.discoverx.com/services/drug-discovery-development-services/epigenetic-profiling/bromoscan-epigenetic-profiling/bromokdelect). Assay measurement is based on the amount of bromodomain captured in test and control samples by using quantitative PCR technology that detects the DNA label associated to bromodomain. Compounds that bind the bromodomain active site prevents its binding to the immobilized ligand and will reduce the amount of bromodomain captured on the solid support. […] Thus, compound activity is monitored by measuring the amount of bromodomain captured in test versus control samples by using qPCR. Binding affinity for test compound-bromodomain interactions are calculated by measuring the amount of bromodomain captured on the solid support as a function of the test compound concentration.
Binding affinity (Kd) of the compounds of Examples 1 and 2 towards CREBBP, EP300 and BRD4 (Bromodomain 1 (BD1) and Bromodomain 2 (BD2)) are determined in an 11 points dose-response study (See Table 5). Data is represented as a mean from a duplicate experiment.

## CCNC(=O)c1ccc(-c2cc3cccc(-c4nn(C)c5c4CN(C)C(=O)CC5)c3cn2)cn1 [Example 2, 5-[8-(1,5-Dimethyl-6-oxo-7,8-dihydro-4H-pyrazolo[4,3-c]azepin-3-yl)-3-isoquinolyl]-N-ethyl-pyridine-2-carboxamide]
[1]
  IC50: 328 nM
[2]
  IC50: 18 nM
[3]
  IC50: 18.6 ± 4.09 nM
[4]
  IC50: 226 nM
[5]
  IC50: 65 nM
[6]
  IC50: 129 nM
[7]
  Kd: 6800 nM
